Assay: Mouse subcutaneous neuropharmacokinetics study
Type: in vivo, Male C57Bl6 mice
Conditions: male, C57Bl6, mouse, brain (cerebellum homogenate) and plasma, sc, subcutaneous dose of 1 mg/kg, read-out: Mouse Cb,u/Cp,u
Method: The neuropharmacokinetics studies in mouse were conducted at Wuxi (Shanghai, China) with bioanalysis conducted at BioDuro (Beijing, China) with the exception of the Comparative-compound 3, which bioanalysis was conducted at Wuxi. All in vivo studies were conducted in accordance with regulations and established guidelines using protocols reviewed and approved by the Pfizer Worldwide Research and Development (WRD, or other) Institutional Animal Care and Use Committee.
Male C57Bl6 mice were maintained on a 12-h light/dark cycle in a temperature- and humidity-controlled environment with free access to food and water. The test compounds (Examples 1 and 2 and Comparative Compounds 1-3) were administered as a subcutaneous dose of 1 mg/kg which was delivered in a dose volume of 10 mL/kg. The dose solution for all compounds was formulated in 5% DMSO/5% cremophor/90% saline. Blood and brain samples were collected at 0.5, 1, 2, 4, 8, 12, and 24 h post-dose (n=3 per time point). Blood samples were collected into tubes containing sodium fluoride and 4-(2-aminoethyl)benzenesulfonyl fluoride hydrochloride (AEBSF; final concentration 2 mg/mL) to inhibit hydrolase activity and placed on wet ice. Following centrifugation to afford plasma, the samples were transferred to polypropylene tubes and stored frozen at −20° C. to −80° C. until analysis. Immediately following blood collection the mice were euthanized by cervical dislocation and the brains were removed. The cerebellum was immediately frozen in liquid nitrogen and stored at −80° C. until analysis.
Cerebellum samples were thawed, diluted 1:4 (w/v) with water, and homogenized using an H-speed dispersator. Standards and controls were prepared in a similar manner using a brain homogenate prepared from untreated animals. The plasma standard curves were generated with species specific plasma. All plasma and brain homogenate samples were quantified via LC/MS-MS using multiple reaction monitoring with non-validated methods.
Equilibrium dialysis using standard procedures [See Di et al., “Species independence in brain tissue binding using brain homogenates”; Drug Metab Dispos 39:1270-1277, 2011) were used for determination of the unbound fraction of the test compounds (Examples 1 and 2 and Comparative Compounds 1-3) in mouse plasma (fu,p; see Di et al., “impact of recovery on fraction unbound using equilibrium dialysis”; J Pharm Sci 101:1327-1335, 2012) and unbound fraction in rat brain homogenate (fu,b; see Di et al., “Species independence in brain tissue binding using brain homogenates”; Drug Metab Dispos 39:1270-1277, 2011). The determination of the unbound fraction in plasma also included the addition of AEBSF at a final concentration of 2 mg/mL to the incubation.
The pharmacokinetic parameters were computed by non-compartmental analysis using Watson Bioanalytical LIMS version 7.5. The AUC values were calculated using the linear trapezoidal method for both brain and plasma. Measured total plasma (Cp) and brain (Cb; assuming brain tissue density of 1 g/mL) concentrations were converted to unbound (free) values using the matrix specific binding factor (fu, p or fu,b) to determine free plasma (Cp,u) and free brain (Cb,u) values. All neurocompartmental ratios (Cb,u/Cp,u) were calculated through use of AUC values with the exception of Comparative Compounds 1 and 2 which used the mean of individual animal values due to insufficient data to calculate an AUC value.

SMILES	Kp,uu (unbound brain/unbound plasma ratio)
O=C(OC(C(F)(F)F)C(F)(F)F)N1CCC2(CC1)C[C@@H](NS(=O)(=O)CC1CC1)CO2 [Example 1, 1,1,1,3,3,3-Hexafluoropropan-2-yl (3R)-3-{[(cyclopropylmethyl)sulfonyl]amino}-1-oxa-8-azaspiro[4.5]decane-8-carboxylate]	1
O=C(OC(C(F)(F)F)C(F)(F)F)N1CCC2(CC1)C[C@@H](NS(=O)(=O)C1CC1)CO2 [Example 2, 1,1,1,3,3,3-Hexafluoropropan-2-yl (3R)-3-[(cyclopropylsulfonyl)amino]-1-oxa-8-azaspiro[4.5]decane-8-carboxylate]	0.8

Source: patent US20210309669A1, “Heterocyclic Spiro Compounds As MAGL Inhibitors” (Pfizer Inc., priority 2018, published 2021)
